Experimental data: paper PMC3272148 (2011)

Legend:
5-HT2C receptor [1] = molecular target: T1, 5-HT2C receptor (Oryctolagus cuniculus, UniProt G1TAG7); assay: [3H]mesulergine competition radioligand binding
T1 sequence (G1TAG7 33-453): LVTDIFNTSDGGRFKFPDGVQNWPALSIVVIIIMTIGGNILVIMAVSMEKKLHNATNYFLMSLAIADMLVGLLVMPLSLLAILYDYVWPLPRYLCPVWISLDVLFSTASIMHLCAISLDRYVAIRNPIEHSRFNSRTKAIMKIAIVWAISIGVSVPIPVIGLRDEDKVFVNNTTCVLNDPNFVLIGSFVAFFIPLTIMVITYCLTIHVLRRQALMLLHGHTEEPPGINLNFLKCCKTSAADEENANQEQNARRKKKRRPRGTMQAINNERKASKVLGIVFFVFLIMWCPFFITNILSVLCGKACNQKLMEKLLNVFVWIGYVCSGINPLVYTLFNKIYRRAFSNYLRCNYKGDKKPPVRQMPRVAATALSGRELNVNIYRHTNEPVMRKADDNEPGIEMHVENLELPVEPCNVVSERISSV

dopamine1 (D1) receptor [2] = molecular target: T2, dopamine1 (D1) receptor (Oryctolagus cuniculus, UniProt G1SML2); assay: [3H]SCH23390 competition radioligand binding
dopamine1 (D1) receptor [3] = molecular target: T2, dopamine1 (D1) receptor; assay: [3H]SCH23390 saturation radioligand binding
[4] = molecular target: serotonin2A (5-HT2A) receptor (Oryctolagus cuniculus, UniProt G1SYA7); assay: [3H]ketanserin saturation radioligand binding
5-HT2C receptor [5] = molecular target: T1, 5-HT2C receptor; assay: [3H]mesulergine saturation radioligand binding

T2 sequence (G1SML2 1-448): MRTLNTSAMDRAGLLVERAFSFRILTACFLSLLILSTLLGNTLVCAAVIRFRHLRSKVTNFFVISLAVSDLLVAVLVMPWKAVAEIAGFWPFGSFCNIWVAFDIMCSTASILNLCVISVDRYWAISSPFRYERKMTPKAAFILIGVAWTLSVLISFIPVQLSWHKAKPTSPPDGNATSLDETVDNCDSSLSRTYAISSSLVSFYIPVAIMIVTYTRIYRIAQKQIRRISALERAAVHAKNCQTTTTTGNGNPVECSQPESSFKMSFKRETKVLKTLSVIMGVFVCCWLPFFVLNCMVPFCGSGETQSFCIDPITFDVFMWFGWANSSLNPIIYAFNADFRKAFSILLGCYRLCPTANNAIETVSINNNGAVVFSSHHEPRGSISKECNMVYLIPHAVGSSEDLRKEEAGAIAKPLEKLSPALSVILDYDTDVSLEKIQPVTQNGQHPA
Chain of serotonin2A (5-HT2A) receptor (G1SYA7 1-469): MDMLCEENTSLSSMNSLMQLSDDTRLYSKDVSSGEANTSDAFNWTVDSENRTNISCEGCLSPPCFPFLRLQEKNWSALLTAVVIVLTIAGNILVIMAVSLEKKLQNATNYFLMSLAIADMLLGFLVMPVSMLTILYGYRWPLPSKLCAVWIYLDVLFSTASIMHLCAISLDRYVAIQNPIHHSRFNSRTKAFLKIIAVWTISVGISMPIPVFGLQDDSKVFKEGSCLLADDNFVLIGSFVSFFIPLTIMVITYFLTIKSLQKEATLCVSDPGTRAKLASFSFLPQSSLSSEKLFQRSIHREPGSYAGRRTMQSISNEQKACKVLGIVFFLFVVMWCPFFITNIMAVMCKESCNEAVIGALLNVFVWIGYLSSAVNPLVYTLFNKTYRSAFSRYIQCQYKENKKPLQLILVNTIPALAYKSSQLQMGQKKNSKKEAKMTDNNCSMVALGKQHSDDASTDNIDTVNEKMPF

## COc1cc(CC(C)N)c(OC)cc1I (racemic) [DOI, (±)-1-(2,5-dimethoxy-4-iodophenyl)-2-aminopropane]
5-HT2C receptor [1]
  Ki: 73.5 nM

## CCN(CC)C(=O)[C@@H]1C=C2c3cccc4[nH]cc(c34)C[C@H]2N(C)C1 [LSD]
5-HT2C receptor [1]
  Ki: 7.5 nM
dopamine1 (D1) receptor [2]
  Ki: 161 nM

## CN1CCc2cc(Cl)c(O)cc2[C@@H](c2ccccc2)C1 [SCH23390]
dopamine1 (D1) receptor [3]
  [3H]SCH23390 saturation radioligand binding (Bmax): Dopamine1 receptor density was quantified using eight concentrations of the antagonist radioligand, [^3H]SCH23390

## O=C(c1ccc(F)cc1)C1CCN(CCn2c(=O)[nH]c3ccccc3c2=O)CC1 [ketanserin]
[4]
  Kd: 0.21 nM

## CN1C[C@@H](NS(=O)(=O)N(C)C)C[C@@H]2c3cccc4c3c(cn4C)C[C@H]21 [mesulergine]
5-HT2C receptor [5]
  [3H]mesulergine saturation radioligand binding (Bmax): Serotonin2C receptor density was quantified using eight concentrations of the antagonist radioligand, [^3H]mesulergine
